We go through 1 compound from patent US7329749B2, “Piperazinylcarbonylquinolines and -isoquinolines” (Merck Patent Gesellschaft, priority 2001, dated 2008).

Holding throughout (assay type): binding
For assay [1], the target named is T1, 5-HT1A receptor (Homo sapiens, UniProt P08908).
T1 sequence (P08908 1-422): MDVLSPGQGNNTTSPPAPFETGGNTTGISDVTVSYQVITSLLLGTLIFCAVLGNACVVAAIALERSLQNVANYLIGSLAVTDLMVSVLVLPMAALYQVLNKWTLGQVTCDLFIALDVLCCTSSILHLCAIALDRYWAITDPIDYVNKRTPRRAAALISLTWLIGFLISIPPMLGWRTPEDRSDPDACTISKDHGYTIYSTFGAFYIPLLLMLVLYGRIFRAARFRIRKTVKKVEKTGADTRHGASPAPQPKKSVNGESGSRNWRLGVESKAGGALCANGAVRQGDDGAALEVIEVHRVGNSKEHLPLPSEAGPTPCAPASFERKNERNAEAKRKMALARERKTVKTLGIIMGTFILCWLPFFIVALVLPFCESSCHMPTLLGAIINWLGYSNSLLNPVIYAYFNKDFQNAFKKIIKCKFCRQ
The assay can be described thus: IC50 at the 5-HT1A receptor.

Assay [2] has as its target T2, 5-HT2A receptor (Rattus norvegicus, UniProt P14842).
T2 construct: Frontal rat cortex is homogenised in ice-cold buffer; from tissue; host or cells: rat frontal cortex homogenate
Put plainly: affinity to 5-HT2A receptors, [3H]ketanserine displacement (Example A1). The protocol: For in-vitro detection of the affinity to 5-HT2A receptors, the following test (Example A1), for example, can be used. The 5-HT2A receptors are exposed both to [^3H]ketanserine (a substance which is known for its affinity to the receptor) and also to the test compound. The decrease in the affinity of [^3H]ketanserine to the receptor is an indication of the affinity of the test substance to the 5-HT2A receptor. The detection is carried out analogously to the description by J. E. Leysen et al., Molecular Pharmacology, 1982, 21: 301-314, or as also described, for example, in EP 0320983.
Preparation of a suspension of 5-HT2A receptors: Frontal rat cortex is homogenised in ice-cold buffer. The homogenate is centrifuged at 4° C. and 50,000×for 10 minutes. The pellet is re-suspended in 2.5 ml of ice-cold tris buffer, made up with 10 ml of additional buffer and centrifuged as described. The pellet is then re-suspended in buffer and diluted to give a homogenate which comprises 60 mg of material/ml. 0.1 ml of the suspension, 100 μl of a 5 nM solution of [^3H]ketanserine, 100 μl of a solution of the test compound (concentration in the range from 10^−5 to 10^−10 mol per litre) are introduced into the incubation tubes and made up to 1 ml with buffer. The tubes are incubated at 37° C. for 15 minutes. […] The filters are analysed by liquid scintillation spectrometry in 8 ml of Triton-X scintillator liquid.

Assay [3] concerns the target D2 receptor (Homo sapiens, UniProt P14416). Put plainly: IC50 at the D2 receptor.
Assay [4] addresses 5-HT2C receptor (Homo sapiens, UniProt P28335). The assay can be described thus: IC50 at the 5-HT2C receptor.
The target in assay [5] is 5-HT1B receptor (Homo sapiens, UniProt P28222). The assay can be described thus: IC50 at the 5-HT1B receptor.
The target in assay [6] is 5-HT1D receptor (Homo sapiens, UniProt P28221). Put plainly: IC50 at the 5-HT1D receptor.

SMILES strings stand for the structures.

T2 sequence (P14842 whole entry): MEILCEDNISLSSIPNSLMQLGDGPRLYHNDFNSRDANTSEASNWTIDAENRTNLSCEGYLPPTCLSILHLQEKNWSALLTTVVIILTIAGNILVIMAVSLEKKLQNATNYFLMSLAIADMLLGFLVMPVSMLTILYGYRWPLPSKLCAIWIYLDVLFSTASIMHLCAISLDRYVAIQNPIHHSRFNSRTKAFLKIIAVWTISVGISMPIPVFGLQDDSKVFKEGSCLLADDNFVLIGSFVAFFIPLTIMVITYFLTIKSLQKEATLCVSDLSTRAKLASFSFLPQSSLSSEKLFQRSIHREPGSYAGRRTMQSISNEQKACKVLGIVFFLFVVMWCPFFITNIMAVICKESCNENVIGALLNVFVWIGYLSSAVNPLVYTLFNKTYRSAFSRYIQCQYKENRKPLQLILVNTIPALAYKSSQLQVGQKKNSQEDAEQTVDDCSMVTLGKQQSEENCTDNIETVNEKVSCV
Sequence of 5-HT1D receptor (P28221 whole entry): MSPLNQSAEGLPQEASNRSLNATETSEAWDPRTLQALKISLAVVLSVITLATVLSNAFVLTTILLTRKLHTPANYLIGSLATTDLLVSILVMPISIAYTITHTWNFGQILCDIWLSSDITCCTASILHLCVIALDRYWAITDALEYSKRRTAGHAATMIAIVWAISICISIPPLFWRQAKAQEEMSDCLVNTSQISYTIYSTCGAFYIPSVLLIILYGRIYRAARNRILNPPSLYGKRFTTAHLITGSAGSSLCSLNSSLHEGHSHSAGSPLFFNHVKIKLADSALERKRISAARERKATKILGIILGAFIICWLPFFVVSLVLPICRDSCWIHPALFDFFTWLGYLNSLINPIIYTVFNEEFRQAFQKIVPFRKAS
Sequence of D2 receptor (P14416 whole entry): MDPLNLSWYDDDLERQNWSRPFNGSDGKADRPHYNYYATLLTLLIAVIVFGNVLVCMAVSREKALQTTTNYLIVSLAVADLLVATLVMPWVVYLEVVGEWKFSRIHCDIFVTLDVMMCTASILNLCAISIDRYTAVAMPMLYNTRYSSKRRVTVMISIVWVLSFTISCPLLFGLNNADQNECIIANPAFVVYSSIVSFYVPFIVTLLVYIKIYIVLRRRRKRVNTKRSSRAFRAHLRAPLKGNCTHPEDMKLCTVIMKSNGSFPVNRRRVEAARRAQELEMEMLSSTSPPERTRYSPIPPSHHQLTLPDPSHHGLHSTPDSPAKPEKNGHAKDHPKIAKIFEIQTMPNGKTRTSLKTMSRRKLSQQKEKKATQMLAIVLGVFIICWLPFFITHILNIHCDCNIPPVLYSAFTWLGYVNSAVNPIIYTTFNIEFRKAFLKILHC
Sequence of 5-HT1B receptor (P28222 whole entry): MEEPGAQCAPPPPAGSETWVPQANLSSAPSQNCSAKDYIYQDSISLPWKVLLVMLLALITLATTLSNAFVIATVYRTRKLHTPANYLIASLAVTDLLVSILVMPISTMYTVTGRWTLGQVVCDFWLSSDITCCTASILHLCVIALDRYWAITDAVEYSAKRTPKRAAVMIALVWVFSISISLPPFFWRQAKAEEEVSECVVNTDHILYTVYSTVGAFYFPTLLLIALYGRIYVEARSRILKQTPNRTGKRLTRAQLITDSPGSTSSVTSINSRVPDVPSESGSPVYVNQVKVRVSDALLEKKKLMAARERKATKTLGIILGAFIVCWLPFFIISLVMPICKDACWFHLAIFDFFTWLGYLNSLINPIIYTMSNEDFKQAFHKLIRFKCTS
Sequence of 5-HT2C receptor (P28335 33-458): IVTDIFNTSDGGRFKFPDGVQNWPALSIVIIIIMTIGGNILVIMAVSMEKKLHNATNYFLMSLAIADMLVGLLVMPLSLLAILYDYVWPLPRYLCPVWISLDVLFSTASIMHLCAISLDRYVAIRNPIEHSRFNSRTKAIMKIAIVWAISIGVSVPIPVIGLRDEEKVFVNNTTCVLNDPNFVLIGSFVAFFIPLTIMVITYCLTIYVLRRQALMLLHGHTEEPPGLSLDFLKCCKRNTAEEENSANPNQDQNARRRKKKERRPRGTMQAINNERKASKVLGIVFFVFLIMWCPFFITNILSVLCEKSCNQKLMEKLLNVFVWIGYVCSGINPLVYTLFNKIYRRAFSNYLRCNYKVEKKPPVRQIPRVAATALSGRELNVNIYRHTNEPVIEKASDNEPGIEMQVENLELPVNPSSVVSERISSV

In the case of `O=C(c1nccc2ccccc12)N1CCN(CCc2ccc(F)cc2)CC1` [Example 1, {4-[2-(4-fluorophenyl)ethyl]piperazin-1-yl}isoquinolin-1-ylmethanone], the 50% inhibitory concentration (IC50) in assay [1] is above 1000 nM; in assay [2], 1 nM; in assay [3] it was above 1000 nM; in assay [4] it was above 1000 nM; in assay [5] it was above 1000 nM; in assay [6] it was above 1000 nM. Further, in assay [2] (5-HT2A versus 5-HT2C, 5-HT1A, 5-HT1B, 5-HT1D and D2 receptors), the “factor by which the affinities differ” value is recorded as “greater than 1000”.
